Test results as given in patent US5380715A, “Ap4 A as a hypotensive agent” (Fujirebio Inc., priority 1992, dated 1995).
“Also recorded” adds a separate entry of the source.

Tests used:
[1] = words; cited from earlier work
rats [2] = test: Recovery of blood pressure after gradual hypotension in rats; format: in vivo, male SD rats; details: rat
Protocol: FIG. 1 is a graph showing the recovery of the blood pressure of rats anesthetized with enflurane with time, when each of Ap4A ( ), PG E1 ( ) and nitroglycerin ( ) was used as a test drug to attain gradual hypotension, with the blood pressure before the administration of each test drug being set 100% for reference.
The recovery of blood pressure after gradual hypotension by use of each of Ap4A, PG E1 and nitroglycerin was also tested.
(§1) The control values were obtained before the administration of each test drug. Each test drug was then administered using a syringe in a dose-dependent manner for 15 minutes. The percentage (%) of the decrease of blood pressure was determined when stabilized. Changes in heart rate (H.R.) at the administration of each test drug were measured. Furthermore,the recovery of mean blood pressure after intravenous infusion of each test drug was also determined from the decrease in heart rate and the blood pressure at a maximum dose of each test drug.
In a test similar to the above, each of Ap4A, PG E1, and nitroglycerin was administered to rats, so that about 65% fall in blood pressure, about 55% fall in blood pressure, and about 35% fall in blood pressure were stepwise attained. With respect to each agent, the recovery of blood pressure was tested.

rats [3] = test: Gradual hypotension during anesthesia in rats; format: in vivo, male SD rats; details: rat, enflurane
Protocol: Male SD rats (Charles River Japan Inc.) were anesthetized with intravenous thiopental 50 mg/kg as a bolus, followed by 1% enflurane in air.
A femoral artery was catheterized to monitor the blood pressure and heart rate, while a femoral vein was catheterized for the administration of each of the test drugs.
as §1

dogs = test: Gradual hypotension during anesthesia in dogs (hemodynamics, blood gas); format: in vivo, mongrel dogs; details: dog
Protocol: Dogs were anesthetized with enflurane. […] The mean blood pressure (B.P.), heart rate (H.R.), cardiac output (C.O.), arterial oxygen tension (PaO2), mixed venos oxygen tension (PvO2), arterial carbonate tension (PaCO2), mixed venous carbonate tension (PvCO2), arterial pH (pH-a), mixed venous pH (pH-v), and base excess thereof were measured.
Mongrel dogs weighing 9 to 17 kg were anesthetized with intravenous thiopental 20 mg/kg by bolus injection, followed by 1% enflurane in 40% O2 /N2 after endotracheal intubation. […] Bilateral femoral arteries were catheterized, one for the determination of blood pressure and the other for blood sampling.
Access to the bilateral femoral veins was obtained for the administration of Ap4A, PG E1 or nitroglycerin and for the insertion of a ballon-tipped thermodilution catheter. The electrocardiogram was continuously monitored. The control values were obtained before the administration of each of the above-mentioned three agents. Each agent was administered using a syringe pump at titrated doses to produce gradual 20%, 40%, 50%, 60%, and 80% decreases in the mean arterial pressure (MAP) from the control value.
After the target blood pressure and stable hemodynamic conditions were reached, the following parameters were measured: heart rate (HR), mean pulmonary artery pressure (PAM), pulmonary capillary wedge pressure (PCWP), and central venous pressure (CVP). Cardiac output (CO) was determined by the thermodilution method. Gas analyses of arterial and mixed venous bloods were performed using a blood gas analyzer.

[4] = enflurane, at -20% blood pressure

O=[N+]([O-])OCC(CO[N+](=O)[O-])O[N+](=O)[O-] [nitroglycerin, reference compound]
shortcomings / adverse effects [1]: congestion by the expansion of vanation, and tachycardia are caused; also recorded: sthenia of brain pressure is caused; also recorded: the arterial oxygen tension (PaO2) is decreased during hypotensive anesthesia
recovered blood pressure (before administration = 100%), plateau (rats [2]; plateau): about 85%
fall in blood pressure attained before recovery (rats [2]; stepwise): about 35%
rapidness of the recovery of blood pressure (rats [2]; order in words): Ap4A>PG E1 >nitroglycerin
Blood Pressure (Δ%) (rats [3]; infusion 0.03 μg/kg/min): 0%
Heart Rate (Δ%) (rats [3]; infusion 0.03 μg/kg/min): 0%
Blood Pressure (Δ%) (rats [3]; infusion 0.1 μg/kg/min): 0%
Heart Rate (Δ%) (rats [3]; infusion 0.1 μg/kg/min): 0%
Blood Pressure (Δ%) (rats [3]; infusion 0.3 μg/kg/min): -1.0 ± 1.0%
Heart Rate (Δ%) (rats [3]; infusion 0.3 μg/kg/min): -0.3 ± 0.5%
Blood Pressure (Δ%) (rats [3]; infusion 1 μg/kg/min): -7.5 ± 3.2%
Heart Rate (Δ%) (rats [3]; infusion 1 μg/kg/min): -1.5 ± 1.1%
Blood Pressure (Δ%) (rats [3]; infusion 3 μg/kg/min): -16.4 ± 4.4%
Heart Rate (Δ%) (rats [3]; infusion 3 μg/kg/min): -6.5 ± 2.3%
Blood Pressure (Δ%) (rats [3]; infusion 10 μg/kg/min): -24.7 ± 4.4%
Heart Rate (Δ%) (rats [3]; infusion 10 μg/kg/min): -13.9 ± 4.0%
Blood Pressure (Δ%) (rats [3]; infusion 30 μg/kg/min): -27.6 ± 5.2%
Heart Rate (Δ%) (rats [3]; infusion 30 μg/kg/min): -13.8 ± 4.7%
fall in blood pressure attainable (dogs; enflurane): ~30%
Arterial Carbonate Tension PaCO2 (dogs; [4]): 36.4 ± 1.6 mmHg
Arterial Oxygen Tension PaO2 (dogs; [4]): 229.9 ± 2.7 mmHg
Arterial pH (pH-a) (dogs; [4]): 7.315 ± 0.020
Body Temperature BT (dogs; [4]): 38.6 ± 0.3 °C
Cardiac Output C.O. (dogs; [4]): 1.58 ± 0.21 L/min
Central Venous Pressure CVP (dogs; [4]): 2.32 ± 0.75 mmHg
Dose (dogs; [4]): 42.2 ± 2.0 µg/kg/min
Heart Rate H.R. (dogs; [4]): 191.7 ± 7.5 beats/min
Hematocrit Value Hct (dogs; [4]): 42.2 ± 2.0%
Mean Blood Pressure B.P. (mean) (dogs; [4]): 101.0 ± 1.5
Mean Blood Pressure B.P. (Δ%) (dogs; [4]): -18.7 ± 0.9%
Mixed Venous Carbonate Tension PvCO2 (dogs; [4]): 39.6 ± 1.6 mmHg
Mixed Venous Oxygen Tension PvO2 (dogs; [4]): 46.5 ± 2.7 mmHg
Mixed Venous pH (pH-v) (dogs; [4]): 7.300 ± 0.014
Pulmonary Artery Pressure PAM (dogs; [4]): 12.8 ± 1.0 mmHg
Pulmonary Capillary Wedge Pressure PCWP (dogs; [4]): 8.0 ± 0.6 mmHg
effect on arterial pH / venous pH (dogs; result in words): significantly decrease arterial pH or have a tendency to decrease arterial pH
effect on heart rate (dogs; result in words): tendency to increase the heart rate when a 20% fall in blood pressure is attained
effect on oxygen tension (dogs; result in words): decreases PaO2
